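Grown in 96-well plates, cells were treated for 48 hours with each compound at five concentrations. Insufficient inhibition: endpoint recorded as highest concentration tested. Here, GI50 denotes the concentration required for 50% inhibition of growth.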 Calls of active or inactive are those of the source. Rule as the data show it: active = GI50 up to about 1.1 µM and inactive = higher.
Experiments:
Assay in all cases: inhibition of tumour cell growth, NCI panel, 48 h
A498 = tested on: A498
ACHN = tested on: ACHN
EKVX = tested on: EKVX
HL-60 = tested on: HL-60
HOP-62 = tested on: HOP-62
HOP-92 = tested on: HOP-92
Malme-3M = tested on: Malme-3M
NCI-H226 = tested on: NCI-H226
NCI-H522 = tested on: NCI-H522
NCI/ADR-RES = tested on: NCI/ADR-RES
OVCAR-4 = tested on: OVCAR-4
RXF 393 = tested on: RXF 393
SF-295 = tested on: SF-295
SF-539 = tested on: SF-539
SK-OV-3 = tested on: SK-OV-3
TK-10 = tested on: TK-10
HCC 2998 = tested on: HCC 2998

Measured: GI50

O=C(O)c1cccc(OCCO)c1
inactive: A498 > 100 µM | ACHN > 100 µM | EKVX > 100 µM | HL-60 > 100 µM | HOP-62 > 100 µM | HOP-92 > 100 µM | Malme-3M > 100 µM | NCI-H226 > 100 µM | NCI-H522 > 100 µM | NCI/ADR-RES > 100 µM | OVCAR-4 > 100 µM | RXF 393 > 100 µM | SF-295 > 100 µM | SF-539 > 100 µM | SK-OV-3 > 100 µM | TK-10 > 100 µM

Cc1ccc(C=C(C(=O)O)C(=O)O)o1
inactive: A498 > 100 µM | ACHN > 100 µM | EKVX > 100 µM | HCC 2998 > 100 µM | HL-60 > 100 µM | HOP-62 > 100 µM | Malme-3M > 100 µM | NCI-H226 > 100 µM | NCI-H522 > 100 µM | NCI/ADR-RES > 100 µM | RXF 393 > 100 µM | SF-295 > 100 µM | SF-539 > 100 µM | SK-OV-3 > 100 µM | TK-10 > 100 µM

CSCCC(NOC(=O)Cc1ccccc1)P(=O)(O)c1ccccc1 (configuration not stated)
inactive: ACHN > 100 µM | HCC 2998 > 100 µM | HL-60 > 100 µM | HOP-62 > 100 µM | HOP-92 > 100 µM | NCI-H226 > 100 µM | NCI-H522 > 100 µM | NCI/ADR-RES > 100 µM | OVCAR-4 > 100 µM | SF-295 > 100 µM | SK-OV-3 > 100 µM | TK-10 > 100 µM

Oc1nc2c(c(-c3ccccc3Cl)n1)COC/C2=C\c1ccccc1Cl
inactive: A498 > 100 µM | ACHN > 100 µM | EKVX 25.6 µM | HCC 2998 > 100 µM | HL-60 71.4 µM | HOP-62 > 100 µM | HOP-92 > 100 µM | NCI-H226 > 100 µM | NCI/ADR-RES > 100 µM | OVCAR-4 > 100 µM | RXF 393 > 100 µM | SF-295 94.8 µM | SF-539 > 100 µM | SK-OV-3 > 100 µM | TK-10 > 100 µM

CC(=O)NC(CCCCNC(=O)OC(C)(C)C)C(=O)O (configuration not stated)
inactive: A498 26.1 µM | ACHN > 100 µM | EKVX > 100 µM | HCC 2998 > 100 µM | HL-60 > 100 µM | HOP-62 > 100 µM | Malme-3M > 100 µM | NCI-H522 > 100 µM | NCI/ADR-RES > 100 µM | OVCAR-4 > 100 µM | SF-295 > 100 µM | TK-10 > 100 µM

COc1ccc2c(c1)c1c(n2CCN2CCCCC2)-c2cccc(OC)c2CC1
inactive: A498 20.1 µM | ACHN 17.5 µM | EKVX 19.6 µM | HCC 2998 15.5 µM | HOP-62 16.7 µM | HOP-92 > 10 µM | NCI-H226 10 µM | NCI-H522 3.82 µM | NCI/ADR-RES 18.7 µM | OVCAR-4 29.2 µM | SF-295 30.5 µM | SK-OV-3 33.4 µM | TK-10 15 µM

Cc1cn(C2CC(O)C(Cn3cc(Cn4nc(Br)c(=O)[nH]c4=O)nn3)O2)c(=O)[nH]c1=O (configuration not stated)
inactive: A498 > 100 µM | ACHN > 100 µM | EKVX > 100 µM | HCC 2998 > 100 µM | HOP-62 > 100 µM | Malme-3M 78 µM | NCI-H226 > 100 µM | NCI/ADR-RES > 100 µM | OVCAR-4 > 100 µM | RXF 393 > 100 µM | SF-295 > 100 µM | SF-539 > 100 µM | SK-OV-3 > 100 µM | TK-10 > 100 µM

CC(=O)Nc1ccc2oc(=O)c3ccccc3c2c1
inactive: A498 > 100 µM | ACHN > 100 µM | EKVX > 100 µM | HCC 2998 > 100 µM | HL-60 > 100 µM | HOP-62 > 100 µM | HOP-92 > 100 µM | Malme-3M > 100 µM | NCI-H226 > 100 µM | NCI-H522 > 100 µM | NCI/ADR-RES > 100 µM | OVCAR-4 > 100 µM | RXF 393 > 100 µM | SF-295 > 100 µM | SF-539 > 100 µM

— ChEMBL document CHEMBL1201862, “PubChem BioAssay data set” (2004)
